Results: patent US6376535B2, “Oxygen-containing heterocyclic compounds” (Kyowa Hakko Kogyo Co., Ltd., priority 1998, dated 2002)

tested on: not given; assay: not given; details: not given

SMILES	melting point [°C]
COC=C1CCC(C#N)(c2ccc(OC)c3c2OCCO3)CC1 (stereo not drawn) [Compound 6, 1-(8-Methoxy-1,4-benzodioxan-5-yl)-4-methoxymethylenecyclohexane carbonitrile]	112 to 113
CCOC(=O)C=C1CCC(C#N)(c2ccc(OC)c3c2OCCO3)CC1 (stereo not drawn) [Compound 10, Ethyl 4-cyano-4-(8-methoxy-1,4-benzodioxan-5-yl)cyclohexanylideneacetate]	110 to 112

Continued, values first:

melting point [°C]	SMILES
158 to 160	COc1ccc(-c2cccc3c2COC3=O)c2c1OCCO2 [Compound 22, 4-(8-Methoxy-1,4-benzodioxan-5-yl)-1(3H)-isobenzofuranone]
203 to 204	COc1ccc(C2(C#N)CCC(=CC(=O)O)CC2)c2c1OCCO2 (stereo not drawn) [Compound 11, 4-Cyano-4-(8-methoxy-1,4-benzodioxan-5-yl)cyclohexanylideneacetic acid]
285 to 287	COc1ccc(-c2ccc3c(c2)C(=O)NC3=O)c2c1OCCO2 [Compound 23, 4-(8-Methoxy-1,4-benzodioxan-5-yl)phthalimide]

biological target: T1, Recombinant Human PDE IV Enzyme (HSPDE4A) (Homo sapiens, UniProt P27815); assay: Inhibition Test on Recombinant Human PDE IV Enzyme; assay type: biochemical; details: substrate [3H]cAMP 1 μmol/L
T1 construct: made in house; host or cells: E. coli
T1 sequence (P27815 224-886 limits assumed): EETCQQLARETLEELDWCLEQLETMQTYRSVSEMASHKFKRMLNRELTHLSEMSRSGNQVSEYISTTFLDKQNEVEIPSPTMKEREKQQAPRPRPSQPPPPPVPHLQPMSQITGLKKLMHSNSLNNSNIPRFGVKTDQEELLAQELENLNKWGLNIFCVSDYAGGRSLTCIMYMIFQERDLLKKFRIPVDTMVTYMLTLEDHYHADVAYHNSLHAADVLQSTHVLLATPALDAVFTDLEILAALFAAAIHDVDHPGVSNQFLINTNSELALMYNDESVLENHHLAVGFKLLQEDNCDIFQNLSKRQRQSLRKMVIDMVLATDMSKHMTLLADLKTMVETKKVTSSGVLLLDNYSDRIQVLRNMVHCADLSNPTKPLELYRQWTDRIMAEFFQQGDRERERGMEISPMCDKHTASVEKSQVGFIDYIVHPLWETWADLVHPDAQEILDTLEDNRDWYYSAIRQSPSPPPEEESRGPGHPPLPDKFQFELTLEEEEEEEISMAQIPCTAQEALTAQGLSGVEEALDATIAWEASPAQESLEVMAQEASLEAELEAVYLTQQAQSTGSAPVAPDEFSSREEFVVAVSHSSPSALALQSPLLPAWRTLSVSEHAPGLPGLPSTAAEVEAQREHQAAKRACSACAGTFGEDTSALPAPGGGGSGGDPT
Experimental: Inhibition Test on Recombinant Human PDE IV Enzyme
Human phosphodiesterase cDNA (HSPDE4A) was isolated from testicles. Its predicted amino acid sequence is identical with the sequence (HSPDE4A5) reported by Bolger, G. et al. (Mol. Cell. Biol., 6558 (1993)) except that 223 amino acids have been deleted from the N-terminal thereof. This recombinant protein was expressed by an E. coli expression plasmid and then purified. The PDE activity was measured in the following 2-step process according to the method of Kincaid, R. and Manganiello, V. [Method. Enzymol., 159, 457 (1988)]. The substrate used was [^3H]cAMP (final concentration: 1 μmol/L), and the reaction was performed in a standard mixture containing N,N-bis(2-hydroxyethyl)-2-aminoethanesulfonic acid (50 mmol/L, pH 7.2), MgCl2 (1 mmol/L) and soybean trypsin inhibitor (0.1 mg/ml). The reaction was initiated by adding the enzyme thereto, and the mixture was incubated at 30° C. for 10 to 30 minutes. The reaction was quenched by hydrochloric acid, and the formed 5′-AMP was completely decomposed with […]. This sample was subjected to chromatography on DEAE-Sephadex A-25, and the eluted [^3H]adenosine was counted […] with a scintillation counter. The test compound was added after dissolved (concentration: 1.7%) in DMSO.

enzyme inhibitory activity	SMILES
over 87%	COc1ccc(C2(C#N)CCC(C(=O)O)CC2)c2c1OCCO2 (stereo not drawn) [Compound 5, cis-4-Cyano-4-(8-methoxy-1,4-benzodioxan-5-yl)cyclohexanecarboxylic acid]
